In one assay the test system is strain KB3ind. The format is cell-based, E. coli. How it is done: (§1) To detect tetracyclines, a plate assay is developed that is similar to one described previously (11). Cells are grown in Luria Broth (adjusted with NaOH to pH 7.5) with 25 μg/ml of kanamycin to a cell density of 0.5 absorbance units (600 nm). A 25 ml sample of the culture is harvested by centrifugation and resuspended in 1 ml of broth. The cells are mixed with 25 ml of soft agar (1%, wt/vol) and poured onto 100 ml of LB (pH 7.5)+ kanamycin, within a 22 cm^2 NUNC plate (Corning). Samples are applied by spotting from 2 to 15 μl, or by applying a disc impregnated with a compound, and the plate is incubated for 3-4 hours at 37° C. The plates are overlaid with a solution containing 13.5 mg of 6-bromo-2-naphthyl-β-D-galactopyranoside side and 86.5 mg of fast blue RR (Sigma) dissolved in 2 ml of dimethylsulfoxide, to which 25 ml of soft agar is added. β-Galactosidase is detected by the presence of a purple spot.

The test system of assay [1] is tetracycline efflux pump (strain KB4 or KB5). Put plainly: Inhibition Assay, plate assay (agar with 5 ng/ml of tetracycline). Further: key: ±: Possible positive; +: Weak positive; ++: Stronger positive; -: Negative. The format is cell-based, E. coli. The conditions noted are these: disc on assay plate. On the procedure: as §1
Two assays are developed for detecting inhibitors of the tetA gene product (using strain KB5), or the tetK gene product (using strain KB4). In the Inhibition Assay, cells of strain KB4 or KB5 are treated as described in the tetracycline screen above, except that the agar medium contains 5 ng/ml of tetracycline. Alternatively a Liquid Assay is also developed. Cells are first grown in LB (pH 7.5). Then cells are shifted to medium containing 5 ng/ml of tetracycline, and tetracycline-containing samples are added to aliquots. Cells are then incubated and assayed as described for the Tetracycline Assay. […] However, the intracellular concentration is reduced in tetracycline resistant strains due to the action of the efflux pump, so more tetracycline would be required in the medium to accumulate sufficient tetracycline inside the cell to induce. The Inhibition Assay is designed to detect compounds that cause β-galactosidase induction in the presence of sub-inducing levels of tetracycline for a resistant strain.

Read-outs that look alike come from different tables or passages of the source.
Wherever Induction Assay response is given: key: ±: Possible positive; +: Weak positive; ++: Stronger positive; -: Negative.

For the compound `CN(C)C1C(=O)C(C(N)=O)=C(O)C2(O)C(=O)C3=C(O)c4c(O)ccc(Cl)c4C(O)C3CC12` (stereo not shown) [6-dimethyl chlortetracycline], the “response in the Tetracycline Assay (β-galactosidase induction)” value in the assay on strain KB3ind (strain KB3ind, plate assay (plate or liquid assay)) is on record as “capable of detecting”. Regarding `NCC[C@H](O)C(=O)N[C@@H]1C[C@H](N)[C@@H](O[C@H]2O[C@H](CN)[C@@H](O)[C@H](O)[C@H]2O)[C@H](O)[C@H]1O[C@H]1O[C@H](CO)[C@@H](O)[C@H](N)[C@H]1O` [Amikacin], the “Inhibition Assay response” value in assay [1] is given as “-”. In addition, the “Induction Assay response” value in the assay on strain KB3ind (disc on assay plate) was “-”.

With `CC1(C)S[C@@H]2[C@H](NC(=O)[C@H](N)c3ccccc3)C(=O)N2[C@H]1C(=O)O` [Ampicillin], the “Induction Assay response” value in the assay with strain KB3ind (disc on assay plate) is recorded as “+”. Regarding `CC1(C)S[C@@H]2[C@H](NC(=O)[C@H](NC(=O)N3CCNC3=O)c3ccccc3)C(=O)N2[C@H]1C(=O)O` [Azlocillin], the “Inhibition Assay response” value in assay [1] is “-”. As to `C[C@H]1[C@H](NC(=O)/C(=N\OC(C)(C)C(=O)O)c2csc(N)n2)C(=O)N1S(=O)(=O)O` [Aztreonam], the “Inhibition Assay response” value in assay [1] is on record as “-”. The “Induction Assay response” value with strain KB3ind (disc on assay plate) is recorded as “-”. Consider `CC1(C)S[C@@H]2[C@H](NC(=O)C(C(=O)O)c3ccccc3)C(=O)N2[C@H]1C(=O)O` (stereo partly shown) [Carbenicillin], for which the “Inhibition Assay response” value in assay [1] is recorded as “+”. Moreover, the “Induction Assay response” value in the assay on strain KB3ind (disc on assay plate) is given as “+”. With `Cn1nnnc1SCC1=C(C(=O)O)N2C(=O)[C@@H](NC(=O)[C@H](O)c3ccccc3)[C@H]2SC1` [Cefamandole], the “Inhibition Assay response” value in assay [1] was “+”. Moreover, in the assay on strain KB3ind (disc on assay plate), the “Induction Assay response” value is on record as “±”. For `CO/N=C(\C(=O)N[C@@H]1C(=O)N2C(C(=O)O)=C(COC(C)=O)CS[C@H]12)c1csc(N)n1` [Cefotaxime], the “Induction Assay response” value in the assay with strain KB3ind (disc on assay plate) is on record as “+”.

As to `CO[C@@]1(NC(=O)Cc2cccs2)C(=O)N2C(C(=O)O)=C(COC(N)=O)CS[C@@H]21` [Cefoxitin], in assay [1], the “Inhibition Assay response” value was “+”. Consider `NC(=O)c1cc[n+](CC2=C(C(=O)O)N3C(=O)[C@@H](NC(=O)[C@@H](c4ccccc4)S(=O)(=O)[O-])[C@H]3SC2)cc1` [Cefsulodin], for which the “Inhibition Assay response” value in assay [1] is given as “±”.

As for `CC(C)(O/N=C(\C(=O)N[C@@H]1C(=O)N2C(C(=O)[O-])=C(C[n+]3ccccc3)CS[C@H]12)c1csc(N)n1)C(=O)O` [Ceftazidine], the “Inhibition Assay response” value in assay [1] was “++”. For the same compound, in the assay on strain KB3ind (disc on assay plate), the “Induction Assay response” value is recorded as “++”. Turning to `O=C(Cc1cccs1)N[C@@H]1C(=O)N2C(C(=O)[O-])=C(C[n+]3ccccc3)CS[C@H]12` [Cephaleridine], the “Inhibition Assay response” value in assay [1] was “+”. For `CC(=O)OCC1=C(C(=O)O)N2C(=O)[C@@H](NC(=O)Cc3cccs3)[C@H]2SC1` [Cephalethin], the “Inhibition Assay response” value in assay [1] is listed as “+”. For the same compound, in the assay with strain KB3ind (disc on assay plate), the “Induction Assay response” value is “+”. As to `O=C(N[C@H](CO)[C@H](O)c1ccc([N+](=O)[O-])cc1)C(Cl)Cl` [Chloremphenicol], in assay [1], the “Inhibition Assay response” value is “-”. Further, the “Induction Assay response” value with strain KB3ind (disc on assay plate) was “-”.

As to `CCn1nc(C(=O)O)c(=O)c2cc3c(cc21)OCO3` [Cinoxacin], in assay [1], the “Inhibition Assay response” value is given as “-”. In the assay with strain KB3ind (disc on assay plate), the “Induction Assay response” value is “±”. Regarding `Cc1onc(-c2ccccc2Cl)c1C(=O)N[C@@H]1C(=O)N2[C@@H]1SC(C)(C)[C@@H]2C(=O)O` [Cloxacillin], in assay [1], the “Inhibition Assay response” value is “-”. For the compound `CC[C@H]1OC(=O)[C@H](C)[C@@H](O[C@H]2C[C@@](C)(OC)[C@@H](O)[C@H](C)O2)[C@H](C)[C@@H](O[C@@H]2O[C@H](C)C[C@H](N(C)C)[C@H]2O)[C@](C)(O)C[C@@H](C)C(=O)[C@H](C)[C@@H](O)[C@]1(C)O` [Erythromycin], the “Inhibition Assay response” value in assay [1] was “-”. Also, the “Induction Assay response” value with strain KB3ind (disc on assay plate) was “-”. With `CC[n+]1c(-c2ccccc2)c2cc(N)ccc2c2ccc(N)cc21` [Ethidium bromide], the “Inhibition Assay response” value in assay [1] was “-”. For `C[C@@H](O)[C@H]1C(=O)N2C(C(=O)O)=C(SCCN=CN)C[C@H]12` [Imipenem], the “Inhibition Assay response” value in assay [1] is reported as “++”. Also, the “Induction Assay response” value with strain KB3ind is listed as “++”. For the compound `NC[C@H]1O[C@H](O[C@H]2[C@H](O)[C@@H](O[C@H]3O[C@H](CO)[C@@H](O)[C@H](N)[C@H]3O)[C@H](N)C[C@@H]2N)[C@H](O)[C@@H](O)[C@@H]1O` [Kanamycin], in assay [1], the “Inhibition Assay response” value is “-”. Also, the “Induction Assay response” value with strain KB3ind is “-”. As to `COc1cccc(OC)c1C(=O)N[C@@H]1C(=O)N2[C@@H]1SC(C)(C)[C@@H]2C(=O)O` [Methicillin], the “Inhibition Assay response” value in assay [1] is “-”. Besides, the “Induction Assay response” value with strain KB3ind (disc on assay plate) is “-”. Consider `CO[C@@]1(NC(=O)C(C(=O)O)c2ccc(O)cc2)C(=O)N2C(C(=O)O)=C(CSc3nnnn3C)CO[C@@H]21` (stereo partly shown) [Moxalactam], for which the “Inhibition Assay response” value in assay [1] is recorded as “+”. Moreover, in the assay on strain KB3ind (disc on assay plate), the “Induction Assay response” value is “-”. Taken in the same sequence, the figures for `CCOc1ccc2ccccc2c1C(=O)N[C@@H]1C(=O)N2[C@@H]1SC(C)(C)[C@@H]2C(=O)O` [Nafcillin] were “-” and “-”. Taken in the same sequence, the figures for `CCn1cc(C(=O)O)c(=O)c2ccc(C)nc21` [Nalidixic Acid] were “-” and “-”.

As to `CCn1cc(C(=O)O)c(=O)c2cc(F)c(N3CCNCC3)cc21` [Norfloxacin], the “Inhibition Assay response” value in assay [1] is “-”. In addition, the “Induction Assay response” value with strain KB3ind (disc on assay plate) was “-”. In the case of `CO[C@@H]1[C@@H](OC(N)=O)[C@@H](O)[C@H](Oc2ccc3c(O)c(NC(=O)c4ccc(O)c(CC=C(C)C)c4)c(=O)oc3c2C)OC1(C)C` [Novobiocin], the “Inhibition Assay response” value in assay [1] is on record as “-”. For the same compound, in the assay on strain KB3ind (disc on assay plate), the “Induction Assay response” value is reported as “-”. For the compound `C[C@@H]1[C@H](O)[C@@H](C)/C=C/C=C/CC/C=C/C=C/C=C/C=C/C(O[C@H]2O[C@H](C)[C@@H](O)[C@H](N)[C@@H]2O)CC2O[C@](O)(CC(O)C(O)CCC(O)CC(O)CC(O)CC(=O)O[C@H]1C)CC(O)C2C(=O)O` (stereo partly shown) [Nystatin], in assay [1], the “Inhibition Assay response” value was “-”. Besides, the “Induction Assay response” value in the assay on strain KB3ind (disc on assay plate) is on record as “++”. Turning to `Cc1onc(-c2ccccc2)c1C(=O)N[C@@H]1C(=O)N2[C@@H]1SC(C)(C)[C@@H]2C(=O)O` [Oxacillin], the “Inhibition Assay response” value in assay [1] is listed as “-”. Besides, the “Induction Assay response” value in the assay on strain KB3ind (disc on assay plate) is “-”.

Take `CC1(C)S[C@@H]2[C@H](NC(=O)Cc3ccccc3)C(=O)N2[C@H]1C(=O)O` [Penicillin G]: the “Inhibition Assay response” value in assay [1] was “-”. The “Induction Assay response” value with strain KB3ind (disc on assay plate) is on record as “-”. As to `CCN1CCN(C(=O)N[C@@H](C(=O)N[C@@H]2C(=O)N3[C@@H]2SC(C)(C)[C@@H]3C(=O)O)c2ccccc2)C(=O)C1=O` [Piperacillin], in assay [1], the “Inhibition Assay response” value was “-”. Further, the “Induction Assay response” value in the assay with strain KB3ind (disc on assay plate) is listed as “±”. With `CO[C@H]1/C=C/O[C@@]2(C)Oc3c(C)c(O)c4c(O)c(c(/C=N/N5CCN(C)CC5)c(O)c4c3C2=O)NC(=O)/C(C)=C\C=C\[C@H](C)[C@H](O)[C@@H](C)[C@@H](O)[C@@H](C)[C@H](OC(C)=O)[C@@H]1C` [Rifampin], in assay [1], the “Inhibition Assay response” value is “-”. In addition, the “Induction Assay response” value in the assay with strain KB3ind is “-”. Take `[H]/N=C(/N)N[C@H]1[C@H](O)[C@@H](O)[C@H](O[C@@H]2O[C@@H](C)[C@](O)(C=O)[C@H]2O[C@@H]2O[C@@H](CO)[C@H](O)[C@@H](O)[C@@H]2NC)[C@@H](N/C(N)=N\[H])[C@@H]1O` [Streptomycin]: the “Inhibition Assay response” value in assay [1] is “-”. The “Induction Assay response” value with strain KB3ind (disc on assay plate) was “-”. Consider `Nc1ccc(S(=O)(=O)Nc2ccc(Cl)nn2)cc1` [Sulfachloropyridazine], for which, in assay [1], the “Inhibition Assay response” value is given as “-”. In addition, in the assay on strain KB3ind (disc on assay plate), the “Induction Assay response” value was “-”. Turning to `Nc1ccc(S(=O)(=O)Nc2ncccn2)cc1` [Sulfadiazine], the “Inhibition Assay response” value in assay [1] is “-”. In addition, in the assay on strain KB3ind, the “Induction Assay response” value was “-”. Regarding `Cc1nnc(NS(=O)(=O)c2ccc(N)cc2)s1` [Sulfamethizole], in assay [1], the “Inhibition Assay response” value is “-”. In addition, in the assay on strain KB3ind (disc on assay plate), the “Induction Assay response” value was “-”. As for `Nc1ccc(S(=O)(=O)Nc2nccs2)cc1` [Sulfathiazole], in assay [1], the “Inhibition Assay response” value was “-”. Moreover, the “Induction Assay response” value with strain KB3ind (disc on assay plate) is “-”. With `CC1(C)S[C@@H]2[C@H](NC(=O)[C@H](C(=O)O)c3ccsc3)C(=O)N2[C@H]1C(=O)O` [Ticarcillin], the “Inhibition Assay response” value in assay [1] is listed as “+”. The “Induction Assay response” value with strain KB3ind (disc on assay plate) is reported as “+”.

On to `NC[C@H]1O[C@H](O[C@H]2[C@H](O)[C@@H](O[C@H]3O[C@H](CO)[C@@H](O)[C@H](N)[C@H]3O)[C@H](N)C[C@@H]2N)[C@H](N)C[C@@H]1O` [Tobramycin], for which, in assay [1], the “Inhibition Assay response” value is “-”. Moreover, the “Induction Assay response” value in the assay with strain KB3ind (disc on assay plate) is given as “-”. As for `CN[C@H](CC(C)C)C(=O)N[C@H]1C(=O)N[C@@H](CC(N)=O)C(=O)N[C@H]2C(=O)N[C@H]3C(=O)N[C@H](C(=O)N[C@H](C(=O)O)c4cc(O)cc(O)c4-c4cc3ccc4O)[C@H](O)c3ccc(c(Cl)c3)Oc3cc2cc(c3O[C@@H]2O[C@H](CO)[C@@H](O)[C@H](O)[C@H]2O[C@H]2C[C@](C)(N)[C@H](O)[C@H](C)O2)Oc2ccc(cc2Cl)[C@H]1O` [Vancomycin], the “Inhibition Assay response” value in assay [1] is recorded as “-”. In addition, the “Induction Assay response” value in the assay with strain KB3ind is on record as “±”.

With Neomycin, the “Induction Assay response” value in the assay on strain KB3ind (disc on assay plate) is “-”.
